Drawing on article PMC5580926 (Antiviral therapy, 2016), this text covers EC50 and CC50 for six compounds.

Structures are written as SMILES. Like-named read-outs stand apart in the source and are kept apart here.

For one data set, the system named is HCVcc-Luc (2a). Briefly: microbe, parasite or virus in culture. The class given is cell-based, HCV. The following applies: read-out: EC50, HCVcc-Luc (2a).
Another data set relates to Con1b replicon. Briefly: Con1b replicon efficacy assay. The class given is cell-based, HCV. The following applies: Hepatitis C virus, read-out: EC50, Con1b replicon. (A replicon is a self-replicating genome or part of one, used to study replication in cells.)
Another data set is described as follows: in vitro. The following applies: human. The class given is cell-based.
Data set [1] in a line: ATPlite cytotoxicity assay under Con1b replicon efficacy assay conditions. The class given is cell-based. The following applies: human.

Consider `CCC[C@H](NC(=O)[C@@H]1[C@H]2CCC[C@H]2CN1C(=O)[C@@H](NC(=O)[C@@H](NC(=O)c1cnccn1)C1CCCCC1)C(C)(C)C)C(=O)C(=O)NC1CC1` [Telaprevir, telaprevir], for which the values for the EC50 with HCVcc-Luc (2a) (Hepatitis C virus) and with Con1b replicon were 200 ± 40 nM and 550 ± 50 nM, respectively. The CC50 in the data set “in vitro” was greater than 100000 nM; in data set [1] (Con1b replicon cell line), 97800 ± 900 nM.

Regarding `COC(=O)N[C@H](C(=O)N1CCC[C@H]1c1nc(-c2ccc(-c3ccc(-c4c[nH]c([C@@H]5CCCN5C(=O)[C@@H](NC(=O)OC)C(C)C)n4)cc3)cc2)c[nH]1)C(C)C` [Daclatasvir, daclatasvir], the EC50 in the data set on HCVcc-Luc (2a) (Hepatitis C virus) and with Con1b replicon was 0.04 ± 0.02 nM each time. The CC50 in “in vitro” was found to be 45000 ± 1000 nM; in data set [1] (Con1b replicon cell line), 22000 ± 1000 nM.

In the case of `CC(C)(C)NC(=O)N[C@H](C(=O)N1C[C@H]2[C@@H]([C@H]1C(=O)NC(CC1CCC1)C(=O)C(N)=O)C2(C)C)C(C)(C)C` (some centres unmarked) [Boceprevir, boceprevir], the EC50 in the data set with Con1b replicon turned out to be 620 ± 10 nM. The CC50 (in the data set “in vitro”; in data set [1]) was greater than 100000 nM in each case.

In the case of `CN1CCN([C@@H](c2ccccc2)c2ccc(Cl)cc2)CC1` [(S)-CCZ, (S)-chlorcyclizine], the EC50 with HCVcc-Luc (2a) (single agent, mean of ≥3 independent tests ±SEM) is 24 ± 9 nM.

On to `CC(C)OC(=O)[C@H](C)N[P@](=O)(OC[C@H]1O[C@@H](n2ccc(=O)[nH]c2=O)[C@](C)(F)[C@@H]1O)Oc1ccccc1` [Sofosbuvir, sofosbuvir], for which the EC50 is 60 ± 2 nM in the data set on HCVcc-Luc (2a) (Hepatitis C virus) and 400 ± 100 nM with Con1b replicon. Moreover, the CC50 (in the data set “in vitro”; in data set [1]) was greater than 100000 nM throughout.

Consider `C[C@@]1(O)[C@H](O)[C@@H](CO)O[C@H]1n1ccc(N)nc1=O` [2′-C-methylcytidine], for which the EC50 is 1400 ± 400 nM in the data set on HCVcc-Luc (2a) (Hepatitis C virus) and 1610 ± 70 nM in the data set on Con1b replicon. The CC50 (in “in vitro”; in data set [1] (Con1b replicon cell line)) was greater than 100000 nM in each case.

As a reminder, the EC50 is the concentration giving half of the maximal effect. The term CC50 denotes the concentration at which the toxic effect on the cells reaches its halfway point.
